Activity and IC50 data for eleven compounds are collected here from ChEMBL document CHEMBL3132859, “Synthesis and biological evaluation of a post-synthetically modified Trp-based diketopiperazine” (Medchemcomm, 2013).

Holding throughout (type): functional, cell-based
The test system of one test is A549. Nature of the test: Antiproliferative activity against human A549 cells after 72 hrs by MTT assay. (Formazan colour is commonly taken as a measure of viable cells.)
The subject of test [1] is HT-29. Nature of the test: Antiproliferative activity against human HT-29 cells after 72 hrs by MTT assay.
The test system of a further test is SK-BR-3. Nature of the test: Antiproliferative activity against human SKBR3 cells after 72 hrs by MTT assay.
The test system of the next test is MDA-MB-231. Nature of the test: Antiproliferative activity against human MDA-MB-231 cells after 72 hrs by MTT assay.
A further test relates to CAL-27. Nature of the test: Antiproliferative activity against human CAL27 cells after 72 hrs by MTT assay.
In test [2] the test system is HeLa. Nature of the test: Antiproliferative activity against human HeLa cells after 72 hrs by MTT assay.
Test [3] concerns HT-29. Nature of the test: Antiproliferative activity against human HT-29 cells after 24 hrs by MTT assay.
Test [4] has as its system HeLa. Nature of the test: Antiproliferative activity against human HeLa cells after 24 hrs by MTT assay.

Active and inactive are the calls of the source. No cut-off for these calls is given here.

Take `COc1ccc(-c2[nH]c3ccccc3c2C[C@@H]2NC(=O)[C@@H]3CCCN3C2=O)cc1`: the outcome in the test with A549, with HT-29 [1] and with SK-BR-3 was Active.

Consider `O=C1N[C@H](Cc2c(-c3ccc(C(F)(F)F)cc3)[nH]c3ccccc23)C(=O)N2CCC[C@H]12`, for which the outcome with MDA-MB-231, in the test on A549 and in the test on CAL-27 was Active.

Turning to `O=C1N[C@@H](Cc2c(-c3ccc(Cl)cc3)[nH]c3ccccc23)C(=O)N2CCC[C@@H]12`, the result in the test on A549, with HT-29 [1] and in the test on SK-BR-3 was Active. Moreover, it took 52 µM to reach half-maximal inhibition in the test with HeLa [2] (IC50).

In the case of `O=C1N[C@@H](Cc2c(-c3ccccc3Cl)[nH]c3ccccc23)C(=O)N2CCC[C@@H]12`, the result in the test on HT-29 [3] and with HeLa [4] was Active.

In the case of `O=C1N[C@@H](Cc2c(-c3ccccc3C(F)(F)F)[nH]c3ccccc23)C(=O)N2CCC[C@@H]12`, the outcome in the test with HT-29 [3] and with HeLa [4] was Active.

Turning to `O=C1N[C@@H](Cc2c(-c3cc(C(F)(F)F)cc(C(F)(F)F)c3)[nH]c3ccccc23)C(=O)N2CCC[C@@H]12`, the result with HT-29 [3] was Active.

As to `O=C1N[C@@H](Cc2c(-c3ccc(C(F)(F)F)cc3)[nH]c3ccccc23)C(=O)N2CCC[C@@H]12`, the result in the test with MDA-MB-231, in the test with A549, in the test on CAL-27, in the test with HT-29 [1] and with SK-BR-3 was Active. This compound also registered a half-inhibitory concentration (IC50) in the test with HeLa [2] of 26 µM.

As to `COC(=O)c1ccc(-c2[nH]c3ccccc3c2C[C@@H]2NC(=O)[C@@H]3CCCN3C2=O)cc1`, the result in the test with A549, with HT-29 [1] and in the test with SK-BR-3 was Active.

Regarding `Cc1ccc(-c2[nH]c3ccccc3c2C[C@@H]2NC(=O)[C@@H]3CCCN3C2=O)cc1`, the result with A549, in the test with HT-29 [1] and in the test on SK-BR-3 was Active.

With `COc1ccccc1-c1[nH]c2ccccc2c1C[C@@H]1NC(=O)[C@@H]2CCCN2C1=O`, the result in the test on HT-29 [3] and in the test on HeLa [4] was Active.

For the compound `O=C1N[C@@H](Cc2c[nH]c3ccccc23)C(=O)N2CCC[C@@H]12` [BREVIANAMIDE F], in the test with HeLa [2], the IC50 is > 200 µM.

By IC50 is commonly meant the midpoint of a concentration-inhibition curve. Read a high IC50 as a need for much substance.
